According to patent US10208019B2, “GLP-1 receptor agonists and uses thereof” (Pfizer Inc., priority 2016, dated 2019):
Read-outs that look alike come from different tables or passages of the source.

What was measured:
[1] = biological target: human GLP-1R (Homo sapiens (Human), UniProt P43220, L260F); assay: CHO GLP-1R Clone C6—Assay 2: HTRF cAMP cell-based functional agonist assay (low GLP-1R density); settings: for EC50: CHO GLP-1R Clone C6, cAMP HTRF, geometric mean; for Emax: read-out: Assay 2 Emax (%)
human GLP-1R (Homo sapiens (Human), UniProt P43220, L260F), sequence (P43220 24-463 L260F): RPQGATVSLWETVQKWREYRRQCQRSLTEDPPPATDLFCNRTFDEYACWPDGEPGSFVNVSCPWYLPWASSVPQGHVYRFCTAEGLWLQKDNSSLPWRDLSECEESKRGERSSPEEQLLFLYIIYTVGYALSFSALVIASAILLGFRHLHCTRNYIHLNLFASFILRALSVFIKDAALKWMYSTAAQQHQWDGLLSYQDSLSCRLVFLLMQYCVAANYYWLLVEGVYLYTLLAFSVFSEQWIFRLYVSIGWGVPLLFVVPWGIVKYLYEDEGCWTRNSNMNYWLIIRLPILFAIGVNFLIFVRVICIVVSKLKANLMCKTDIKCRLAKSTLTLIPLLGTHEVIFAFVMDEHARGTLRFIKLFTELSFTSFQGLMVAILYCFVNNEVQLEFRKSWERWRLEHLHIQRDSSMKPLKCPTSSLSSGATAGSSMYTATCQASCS
Procedure: GLP-1R-mediated agonist activity was determined with a cell-based functional assay utilizing an HTRF (Homogeneous Time-Resolved Fluorescence) cAMP detection kit (cAMP HI Range Assay Kit; Cis Bio cat #62AM6PEJ) that measures cAMP levels in the cell. The method is a competitive immunoassay between native cAMP produced by the cells and exogenous cAMP labeled with the dye d2. The tracer binding is visualized by a mAb anti-cAMP labeled with Cryptate. The specific signal (i.e. energy transfer) is inversely proportional to the concentration of cAMP in either a standard or an experimental sample.
The human GLP-1R coding sequence (NCBI Reference Sequence NP_002053.3, including naturally-occurring variant Leu260Phe) was subcloned into pcDNA5-FRT-TO and a clonal CHO cell line stably expressing a low receptor density was isolated using the Flp-In™ T-Rex™ System, as described by the manufacturer (ThermoFisher).
Cells were removed from cryopreservation, re-suspended in 40 mL of Dulbecco's Phosphate Buffered Saline (DPBS-Lonza Cat #17-512Q) and centrifuged at 800×g for 5 min at 22° C. The DPBS was aspirated, and the cell pellet was re-suspended in 10 mL of complete growth medium (DMEM:F12 1:1 Mixture with HEPES, L-Gln, 500 mL (DMEM/F12 Lonza Cat #12-719F), 10% heat inactivated fetal bovine serum (Gibco Cat #16140-071), 5 mL of 100× Pen-Strep (Gibco Cat #15140-122), 5 mL of 100× L-Glutamine (Gibco Cat #25030-081), 700 μg/mL Hygromycin (Invitrogen Cat #10687010) and 15 μg/mL Blasticidin (Gibco Cat #R21001). A 1 mL sample of the cell suspension in growth media was counted on a Becton Dickinson ViCell to determine cell viability and cell count per mL. The remaining cell suspension was then adjusted with growth media to deliver 1600 viable cells per well using a Matrix Combi Multidrop reagent dispenser, and the cells were dispensed into a white 384 well tissue culture treated assay plate (Corning 3570). The assay plate was then incubated for 48 h at 37° C. in a humidified environment (95% O2, 5% CO2)
Varying concentrations of each compound to be tested (in DMSO) were diluted in assay buffer [HBSS with Calcium/Magnesium (Lonza/BioWhittaker cat #10-527F)/0.1% BSA (Sigma Aldrich cat #A7409-1L)/20 mM HEPES (Lonza/BioWhittaker cat #17-737E)] containing 100 μM 3-isobutyl-1-methylxanthin (IBMX; Sigma cat #15879). The final DMSO concentration in the compound/assay buffer mixture is 1%.
After 48 h, the growth media was removed from the assay plate wells, and the cells were treated with 20 μL of the serially diluted compound in assay buffer for 30 min at 37° C. in a humidified environment (95% O2, 5% CO2). Following the 30 min incubation, 10 μL of labeled d2 cAMP and 10 μL of anti-cAMP antibody (both diluted 1:20 in cell lysis buffer; as described in the manufacturer's assay protocol) were added to each well of the assay plate. The plates were then incubated at room temperature and after 60 minutes, changes in the HTRF signal were read with an Envision 2104 multi-label plate reader using excitation of 330 nm and emissions of 615 and 665 nm. Raw data were converted to nM cAMP by interpolation from a cAMP standard curve (as described in the manufacturer's assay protocol) and the percent effect was determined relative to a saturating concentration of the full agonist GLP-1 (1 μM) included on each plate. EC50 determinations were made from agonist dose response curves analyzed with a curve fitting program using a 4-parameter logistic dose response equation.

[2] = biological target: human GLP-1R (Homo sapiens, UniProt P43220, G168S); assay: CHO GLP-1R Clone H6—Assay 1: HTRF cAMP cell-based functional agonist assay (high GLP-1R density); settings: for EC50: CHO GLP-1R Clone H6, cAMP HTRF, geometric mean; for Emax: read-out: Assay 1 Emax (%), CHO GLP-1R Clone H6
human GLP-1R (Homo sapiens, UniProt P43220, G168S), sequence (P43220 24-463 G168S limits assumed): as the sequence (P43220 24-463 L260F) above, with G145S, F237L counted along it

[3] = CHO GLP-1R Clone C6, relative to saturating concentration of full agonist GLP-1 (1 μM), arithmetic mean
[4] = relative to saturating concentration of full agonist GLP-1 (1 μM), arithmetic mean

Row | SMILES | EC50 [1] [nM] | Emax [1, 3] [%] | EC50 ([2]; read-out: Assay 1 EC50) [nM] | Emax [2, 4] [%] | Assay 1 Emax (%) ([2]; CHO GLP-1R Clone H6, relative to saturating concentration of full agonist GLP-1 (1 μM), arithmetic mean) | EC50 ([2]; Assay 1 EC50 (nM)) [nM] | Assay 2 Emax (%) [1, 3] [%]
1 | O=C(O)c1ccc2nc(CN3CCC(c4cccc(OCc5ccc(Cl)cc5F)n4)CC3)n(CCn3cccn3)c2c1 [Example 11A-28, 2-[(4-{6-[(4-chloro-2-fluorobenzyl)oxy]pyridin-2-yl}piperidin-1-yl)methyl]-1-[2-(1H-pyrazol-1-yl)ethyl]-1H-benzimidazole-6-carboxylic acid] | 1200 | 82 | 54 | 77 | – | – | –
2 | CCOC(C)Cn1c(CN2CCC(c3cccc(OCc4ccc(Cl)cc4F)n3)CC2)nc2ccc(C(=O)O)cc21 (centres unmarked) [Example 11A-18, 2-[(4-{6-[(4-chloro-2-fluorobenzyl)oxy]pyridin-2-yl}piperidin-1-yl)methyl]-1-(2-ethoxypropyl)-1H-benzimidazole-6-carboxylic acid] | 270 | 92 | 14 | 80 | – | – | –
3 | CC[C@H]1CN(c2cccc(OCc3ccc(Cl)cc3F)n2)CCN1Cc1nc2ccc(C(=O)O)cc2n1CCOC [Example 12A-07, 2-{[(2S)-4-{6-[(4-chloro-2-fluorobenzyl)oxy]pyridin-2-yl}-2-ethylpiperazin-1-yl]methyl}-1-(2-methoxyethyl)-1H-benzimidazole-6-carboxylic acid] | 1200 | 83 | 37 | 69 | – | – | –
4 | COCCn1c(CN2CCN(c3ccc(F)c(OCc4ccc(C#N)cc4)n3)C[C@@H]2C)nc2ccc(C(=O)O)cc21 [Example 1A-08, 2-{[(2S)-4-{6-[(4-cyanobenzyl)oxy]-5-fluoropyridin-2-yl}-2-methylpiperazin-1-yl]methyl}-1-(2-methoxyethyl)-1H-benzimidazole-6-carboxylic acid] | 120 | 85 | 7.1 | 81 | – | – | –
5 | COC1(Cn2c(CN3CCC(c4cccc(OCc5ccc(Cl)cc5F)n4)CC3)nc3ccc(C(=O)O)cc32)CCC1 [Example 10A-26, 2-[(4-{6-[(4-chloro-2-fluorobenzyl)oxy]pyridin-2-yl}piperidin-1-yl)methyl]-1-[(1-methoxycyclobutyl)methyl]-1H-benzimidazole-6-carboxylic acid] | 190 | 80 | 7 | 59 | – | – | –
6 | C[C@H]1CN(c2cccc(OCc3ccc(C#N)cc3F)n2)CCN1Cc1nc2ccc(C(=O)O)nc2n1Cc1ncco1 [Example 2A-21, 2-{[(2S)-4-{6-[(4-cyano-2-fluorobenzyl)oxy]pyridin-2-yl}-2-methylpiperazin-1-yl]methyl}-3-(1,3-oxazol-2-ylmethyl)-3H-imidazo[4,5-b]pyridine-5-carboxylic acid] | 220 | 110 | 8.5 | 88 | – | – | –
7 | N#Cc1ccc(COc2cccc(C3CCN(Cc4nc5ccc(C(=O)O)cc5n4CC4CCCO4)CC3)n2)cc1 (single isomer, unassigned; enantiomer 1) [Example 14A-01, 2-[(4-{6-[(4-cyanobenzyl)oxy]pyridin-2-yl}piperidin-1-yl)methyl]-1-(tetrahydrofuran-2-ylmethyl)-1H-benzimidazole-6-carboxylic acid,enantiomer 1] | 200 | – | 5.6 | – | – | – | 89
8 | O=C(O)c1cc2c(cn1)nc(CN1CCC(c3cccc(OCc4ccc(Cl)cc4F)n3)CC1)n2C[C@@H]1CCO1 [Example 2A-05, 2-[(4-{6-[(4-chloro-2-fluorobenzyl)oxy]pyridin-2-yl}piperidin-1-yl)methyl]-1-[(2S)-oxetan-2-ylmethyl]-1H-imidazo[4,5-c]pyridine-6-carboxylic acid] | 150 | 84 | 6 | 73 | – | – | –
9 | Cn1cnnc1Cn1c(CN2CCC(c3cccc(OCc4ccc(Cl)cc4F)n3)CC2)nc2ccc(C(=O)O)cc21 [Example 11A-71, 2-[(4-{6-[(4-chloro-2-fluorobenzyl)oxy]pyridin-2-yl}piperidin-1-yl)methyl]-1-[(4-methyl-4H-1,2,4-triazol-3-yl)methyl]-1H-benzimidazole-6-carboxylic acid] | 570 | 93 | 30 | 73 | – | – | –
10 | O=C(O)c1ccc2nc(CN3CCC(c4cccc(OCc5ccc(Cl)cc5F)n4)CC3)n(C[C@H]3CCO3)c2n1 [Example 2A-22, 2-[(4-{6-[(4-chloro-2-fluorobenzyl)oxy]pyridin-2-yl}piperidin-1-yl)methyl]-3-[(2R)-oxetan-2-ylmethyl]-3H-imidazo[4,5-b]pyridine-5-carboxylic acid] | 190 | 83 | 14 | 72 | – | – | –
11 | O=C(O)c1ccc2nc(CN3CCC(c4cccc(OCc5ccc(Cl)cc5F)n4)CC3)n(CCn3cncn3)c2c1 [Example 11A-17, 2-[(4-{6-[(4-chloro-2-fluorobenzyl)oxy]pyridin-2-yl}piperidin-1-yl)methyl]-1-[2-(1H-1,2,4-triazol-1-yl)ethyl]-1H-benzimidazole-6-carboxylic acid] | 380 | 96 | 11 | 65 | – | – | –
12 | COCCn1c(CN2CCN(c3cccc(OCc4ccc(Cl)cc4F)n3)CC2C(F)(F)F)nc2ccc(C(=O)O)cc21 (single isomer, unassigned; enantiomer 1) [Example 12A-01, 2-((4-(6-((4-Chloro-2-fluorobenzyl)oxy)pyridin-2-yl)-2-(trifluoromethyl)piperazin-1-yl)methyl)-1-(2-methoxyethyl)-1H-benzo[d]imidazole-6-carboxylic acid, enantiomer 1] | – | – | – | – | – | > 20000 | –
13 | CN1CCC1Cn1c(CN2CCC(c3cccc(OCc4ccc(Cl)cc4F)n3)CC2)nc2ccc(C(=O)O)cc21 (centres unmarked) [Example 10A-79] | – | – | 33 | 80 | – | – | –
14 | Cn1c(CN2CCC(c3cccc(OCc4ccccc4OC(F)(F)F)n3)CC2)nc2ccc(C(=O)O)cc21 [Example 9A-10, 1-methyl-2-{[4-(6-{[2-(trifluoromethoxy)benzyl]oxy}pyridin-2-yl)piperidin-1-yl]methyl}-1H-benzimidazole-6-carboxylic acid] | – | – | 4500 | 48 | – | – | –

Further lines, with some results ahead:

Row | EC50 [1] [nM] | Emax [1, 3] [%] | EC50 ([2]; read-out: Assay 1 EC50) [nM] | Emax [2, 4] [%] | Assay 1 Emax (%) ([2]; CHO GLP-1R Clone H6, relative to saturating concentration of full agonist GLP-1 (1 μM), arithmetic mean) | EC50 ([2]; Assay 1 EC50 (nM)) [nM] | SMILES | Assay 2 Emax (%) [1, 3] [%]
15 | 12 | 98 | 0.94 | 83 | – | – | O=C(O)c1ccc2nc(CN3CCC(c4cccc(OCc5ccc(Cl)cc5F)n4)CC3)n(C[C@@H]3CCO3)c2c1 [Example 3A-01, 2-[(4-{6-[(4-chloro-2-fluorobenzyl)oxy]pyridin-2-yl}piperidin-1-yl)methyl]-1-[(2S)-oxetan-2-ylmethyl]-1H-benzimidazole-6-carboxylic acid] | –
16 | 120 | 80 | 5.2 | – | 66 | – | COCCn1c(CN2CCC(c3cccc(OCc4ccc(Cl)cc4F)n3)CC2C)nc2ccc(C(=O)O)cc21 (single isomer, unassigned) [Example 13A-03, cis 2-{[4-{6-[(4-Chloro-2-fluorobenzyl)oxy]pyridin-2-yl}-2-methylpiperidin-1-yl]methyl}-1-(2-methoxyethyl)-1H-benzimidazole-6-carboxylic acid] | –
17 | 28 | 88 | 1.6 | 83 | – | – | N#Cc1ccc(COc2cccc(C3CCN(Cc4nc5ccc(C(=O)O)cc5n4C[C@@H]4CCO4)CC3)n2)cc1 [Example 10A-78, 2-[(4-{6-[(4-cyanobenzyl)oxy]pyridin-2-yl}piperidin-1-yl)methyl]-1-[(2S)-oxetan-2-ylmethyl]-1H-benzimidazole-6-carboxylic acid] | –
18 | 9.2 | 94 | 0.55 | 77 | – | – | O=C(O)c1ccc2nc(CN3CCN(c4cccc(OCc5ccc(Cl)cc5F)n4)CC3)n(C[C@@H]3CCO3)c2c1 [Example 10A-08, 2-[(4-{6-[(4-chloro-2-fluorobenzyl)oxy]pyridin-2-yl}piperazin-1-yl)methyl]-1-[(2S)-oxetan-2-ylmethyl]-1H-benzimidazole-6-carboxylic acid] | –
19 | 6.8 | 93 | 0.59 | 83 | – | – | CCn1cncc1Cn1c(CN2CCN(c3cccc(OCc4ccc(Cl)cc4F)n3)C[C@@H]2C)nc2ccc(C(=O)O)cc21 [Example 10A-67, 2-{[(2S)-4-{6-[(4-chloro-2-fluorobenzyl)oxy]pyridin-2-yl}-2-methylpiperazin-1-yl]methyl}-1-[(1-ethyl-1H-imidazol-5-yl)methyl]-1H-benzimidazole-6-carboxylic acid] | –
20 | 94 | 76 | 5.8 | 72 | – | – | COCCn1c(CN2CCC(c3cccc(OCc4ccc(Cl)cc4F)n3)CC2)nc2ccc(C(=O)O)c(F)c21 [Example 2A-08, 2-[(4-{6-[(4-chloro-2-fluorobenzyl)oxy]pyridin-2-yl}piperidin-1-yl)methyl]-7-fluoro-1-(2-methoxyethyl)-1H-benzimidazole-6-carboxylic acid] | –
21 | 23 | 110 | 3.4 | 86 | – | – | Cn1cncc1Cn1c(CN2CCN(c3cccc(OCc4ccc(C#N)cc4F)n3)CC2)nc2ccc(C(=O)O)cc21 [Example 10A-37, 2-[(4-{6-[(4-cyano-2-fluorobenzyl)oxy]pyridin-2-yl}piperazin-1-yl)methyl]-1-[(1-methyl-1H-imidazol-5-yl)methyl]-1H-benzimidazole-6-carboxylic acid] | –
22 | 45 | 83 | 1.7 | 67 | – | – | C[C@H]1CN(c2cccc(OCc3ccc(Cl)cc3F)n2)CCN1Cc1nc2ccc(C(=O)O)cc2n1Cc1cnco1 [Example 10A-16, 2-{[(2S)-4-{6-[(4-chloro-2-fluorobenzyl)oxy]pyridin-2-yl}-2-methylpiperazin-1-yl]methyl}-1-(1,3-oxazol-5-ylmethyl)-1H-benzimidazole-6-carboxylic acid] | –
